Tests used:
Experiment in all cases: relative viability (nuclei count vs DMSO), 5 days (fraction); higher = more cells survive
[1] = tested on: NCI-H1975
Outline: (§1)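 Relative viability was taken as the ratio of nuclei in treated wells to nuclei in vehicle wells. Lung cancer cell lines in 1536-well plates received compounds by pin tool one day after seeding, either one drug alone or a fixed anchor-drug dose plus five library-drug doses (not always all listed) in √10 steps. Nuclei were counted on 4× images after 5 days of treatment, and values are medians of duplicate plates.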

[2] = tested on: NCI-H1651
Outline: as §1

[3] = tested on: NCI-H1734
Outline: as §1

[4] = tested on: EMC-BAC-2
Outline: as §1

[5] = tested on: NCI-H661
Outline: as §1

[6] = tested on: ABC-1
Outline: as §1

[7] = tested on: EPLC-272H
Outline: as §1

[8] = tested on: NCI-H1792
Outline: as §1

[9] = tested on: NCI-H647
Outline: as §1

[10] = tested on: NCI-H1915
Outline: as §1

[11] = tested on: RERF-LC-KJ
Outline: as §1

[12] = tested on: 201T
Outline: as §1

[13] = tested on: NCI-H23
Outline: as §1

[14] = tested on: SK-LU-1
Outline: as §1

[15] = tested on: NCI-H2023
Outline: as §1

[16] = tested on: HCC-78
Outline: as §1

[17] = tested on: NCI-H2405
Outline: as §1

[18] = tested on: NCI-H1437
Outline: as §1

[19] = tested on: LOU-NH91
Outline: as §1

[20] = tested on: UMC-11
Outline: as §1

[21] = tested on: LCLC-103H
Outline: as §1

O=C(O)CCCCC(CCSCc1ccccc1)SCc1ccccc1 (stereo not drawn) [CPI-613] + C[C@@H](Oc1cc(-c2cnn(C3CCNCC3)c2)cnc1N)c1c(Cl)ccc(F)c1Cl [Crizotinib] (partner 1 µM)
relative viability ([1]; first compound 5 µM): 0.931 | relative viability ([1]; first compound 15.81 µM): 0.982 | relative viability ([1]; first compound 50 µM): 0.945 | relative viability ([1]; first compound 158.11 µM): 0.499 | relative viability ([1]; first compound 500 µM): 0.0749 | relative viability ([2]; first compound 5 µM): 0.838 | relative viability ([2]; first compound 15.81 µM): 0.769 | relative viability ([2]; first compound 50 µM): 0.922 | relative viability ([2]; first compound 158.11 µM): 0.818 | relative viability ([2]; first compound 500 µM): 0.927 | relative viability ([3]; first compound 5 µM): 0.695 | relative viability ([3]; first compound 15.81 µM): 0.685 | relative viability ([3]; first compound 50 µM): 0.62 | relative viability ([3]; first compound 158.11 µM): 0.279 | relative viability ([3]; first compound 500 µM): 0.113 | relative viability ([4]; first compound 5 µM): 0.753 | relative viability ([4]; first compound 15.81 µM): 0.708 | relative viability ([4]; first compound 50 µM): 0.83 | relative viability ([4]; first compound 158.11 µM): 0.494 | relative viability ([4]; first compound 500 µM): 0.267 | relative viability ([5]; first compound 15.81 µM): 1.03 | relative viability ([5]; first compound 50 µM): 0.997 | relative viability ([5]; first compound 158.11 µM): 1.15 | relative viability ([5]; first compound 500 µM): 0.817 | relative viability ([6]; first compound 5 µM): 0.984 | relative viability ([6]; first compound 15.81 µM): 0.855 | relative viability ([6]; first compound 50 µM): 0.875 | relative viability ([6]; first compound 158.11 µM): 0.367 | relative viability ([6]; first compound 500 µM): 0.213 | relative viability ([7]; first compound 5 µM): 0.9 | relative viability ([7]; first compound 15.81 µM): 0.925 | relative viability ([7]; first compound 50 µM): 1.03 | relative viability ([7]; first compound 158.11 µM): 0.855 | relative viability ([7]; first compound 500 µM): 1.07 | relative viability ([8]; first compound 5 µM): 0.937 | relative viability ([8]; first compound 15.81 µM): 0.909 | relative viability ([8]; first compound 50 µM): 0.914 | relative viability ([8]; first compound 158.11 µM): 0.91 | relative viability ([8]; first compound 500 µM): 0.753 | relative viability ([9]; first compound 5 µM): 0.853 | relative viability ([9]; first compound 15.81 µM): 1.01 | relative viability ([9]; first compound 50 µM): 0.769 | relative viability ([9]; first compound 158.11 µM): 0.0681 | relative viability ([9]; first compound 500 µM): 0.0175 | relative viability ([10]; first compound 5 µM): 0.895 | relative viability ([10]; first compound 15.81 µM): 0.93 | relative viability ([10]; first compound 50 µM): 0.809 | relative viability ([10]; first compound 158.11 µM): 0.678 | relative viability ([10]; first compound 500 µM): 0.446 | relative viability ([11]; first compound 5 µM): 0.841 | relative viability ([11]; first compound 15.81 µM): 0.789 | relative viability ([11]; first compound 50 µM): 0.76 | relative viability ([11]; first compound 158.11 µM): 0.876 | relative viability ([11]; first compound 500 µM): 0.268 | relative viability ([12]; first compound 5 µM): 1.04 | relative viability ([12]; first compound 15.81 µM): 0.989 | relative viability ([12]; first compound 50 µM): 0.94 | relative viability ([12]; first compound 158.11 µM): 0.93 | relative viability ([12]; first compound 500 µM): 0.984 | relative viability ([13]; first compound 5 µM): 0.542 | relative viability ([13]; first compound 15.81 µM): 0.563 | relative viability ([13]; first compound 50 µM): 0.488 | relative viability ([13]; first compound 158.11 µM): 0.189 | relative viability ([13]; first compound 500 µM): 0.0618 | relative viability ([14]; first compound 5 µM): 1.03 | relative viability ([14]; first compound 15.81 µM): 0.902 | relative viability ([14]; first compound 50 µM): 0.644 | relative viability ([14]; first compound 158.11 µM): 0.167 | relative viability ([14]; first compound 500 µM): 0.104 | relative viability ([15]; first compound 5 µM): 0.583 | relative viability ([15]; first compound 15.81 µM): 0.605 | relative viability ([15]; first compound 50 µM): 0.598 | relative viability ([15]; first compound 158.11 µM): 0.388 | relative viability ([15]; first compound 500 µM): 0.0057 | relative viability ([16]; first compound 5 µM): 0.346 | relative viability ([16]; first compound 15.81 µM): 0.318 | relative viability ([16]; first compound 158.11 µM): 0.348 | relative viability ([16]; first compound 500 µM): 0.331 | relative viability ([17]; first compound 5 µM): 0.855 | relative viability ([17]; first compound 15.81 µM): 0.842 | relative viability ([17]; first compound 50 µM): 0.825 | relative viability ([17]; first compound 158.11 µM): 0.828 | relative viability ([17]; first compound 500 µM): 0.829 | relative viability ([18]; first compound 5 µM): 0.96 | relative viability ([18]; first compound 15.81 µM): 0.794 | relative viability ([18]; first compound 50 µM): 0.857 | relative viability ([18]; first compound 158.11 µM): 0.229 | relative viability ([18]; first compound 500 µM): 0.0274 | relative viability ([19]; first compound 5 µM): 0.801 | relative viability ([19]; first compound 15.81 µM): 0.692 | relative viability ([19]; first compound 50 µM): 0.765 | relative viability ([19]; first compound 158.11 µM): 0.71 | relative viability ([19]; first compound 500 µM): 0.722 | relative viability ([20]; first compound 5 µM): 0.578 | relative viability ([20]; first compound 15.81 µM): 0.668 | relative viability ([20]; first compound 50 µM): 0.696 | relative viability ([20]; first compound 158.11 µM): 0.298 | relative viability ([20]; first compound 500 µM): 0.0636 | relative viability ([21]; first compound 5 µM): 1.11 | relative viability ([21]; first compound 15.81 µM): 1.1 | relative viability ([21]; first compound 50 µM): 0.917 | relative viability ([21]; first compound 158.11 µM): 0.855 | relative viability ([21]; first compound 500 µM): 0.861

Source: the supplement of paper PMC10307832
